Test results from PubChem BioAssay AID256 (DTP/NCI, 2004).
Toxic doses and inconclusive results are not listed. How the source made its calls: active means survival T/C of 150% or more; inactive means T/C below 125% in these data.

Tested on: CD2F1 mice, L1210 leukemia ip, survival T/C
Experiment: NCI In Vivo Anticancer Drug Screen. Data for tumor model L1210 Leukemia (intraperitoneal) in CD2F1 (CDF1) mice
Settings: higher = longer survival
Outline: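 Tumor-bearing mice (transplanted tumor) were split into treated and vehicle control groups, and the measured endpoint of each treated group was divided by that of its vehicle controls.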

[1] = endpoint: mean survival time, dose: 75.0 mg/kg/injection, schedule: Q01DX001 (ip), vehicle: saline
[2] = endpoint: mean survival time, dose: 25.0 mg/kg/injection, schedule: Q01DX009 (ip), vehicle: saline with Tween-80
[3] = endpoint: mean survival time, dose: 50.0 mg/kg/injection, schedule: Q01DX009 (ip), vehicle: saline with Tween-80
[4] = endpoint: mean survival time, dose: 100.0 mg/kg/injection, schedule: Q01DX001 (ip), vehicle: saline with Tween-80
[5] = endpoint: mean survival time, dose: 100.0 mg/kg/injection, schedule: Q01DX009 (ip), vehicle: saline with Tween-80
[6] = endpoint: mean survival time, dose: 100.0 mg/kg/injection, schedule: Q01DX009 (ip), vehicle: other
[7] = endpoint: mean survival time, dose: 200.0 mg/kg/injection, schedule: Q01DX009 (ip), vehicle: other
[8] = endpoint: mean survival time, dose: 400.0 mg/kg/injection, schedule: Q01DX009 (ip), vehicle: other
[9] = endpoint: mean survival time, dose: 200.0 mg/kg/injection, schedule: Q01DX001 (ip), vehicle: saline with Tween-80
[10] = endpoint: mean survival time, dose: 400.0 mg/kg/injection, schedule: Q01DX001 (ip), vehicle: saline with Tween-80
[11] = endpoint: mean survival time, dose: 100.0 mg/kg/injection, schedule: Q04DX003 (ip), vehicle: saline with Tween-80
[12] = endpoint: mean survival time, dose: 200.0 mg/kg/injection, schedule: Q04DX003 (ip), vehicle: saline with Tween-80
[13] = endpoint: mean survival time, dose: 400.0 mg/kg/injection, schedule: Q04DX003 (ip), vehicle: saline with Tween-80
[14] = endpoint: mean survival time, dose: 200.0 mg/kg/injection, schedule: Q01DX009 (ip), vehicle: saline with Tween-80

Measured: T/C

CC1(C)Nc2cc3c(cc2-n2cccc21)oc1ccccc13
inactive: endpoint: median survival time, dose: 50.0 mg/kg/injection, schedule: Q01DX005 (ip), vehicle: DMSO 98 % of control | endpoint: median survival time, dose: 100.0 mg/kg/injection, schedule: Q01DX005 (ip), vehicle: DMSO 103 % of control | endpoint: median survival time, dose: 200.0 mg/kg/injection, schedule: Q01DX005 (ip), vehicle: DMSO 100 % of control | endpoint: median survival time, dose: 400.0 mg/kg/injection, schedule: Q01DX005 (ip), vehicle: DMSO 101 % of control | endpoint: median survival time, dose: 800.0 mg/kg/injection, schedule: Q01DX005 (ip), vehicle: DMSO 103 % of control

NCC1CCCC1N (centres undefined)
inactive: endpoint: mean survival time, dose: 18.8 mg/kg/injection, schedule: Q01DX001 (ip), vehicle: saline 114 % of control | endpoint: mean survival time, dose: 18.8 mg/kg/injection, schedule: Q04DX003 (ip), vehicle: saline 101 % of control | endpoint: mean survival time, dose: 37.5 mg/kg/injection, schedule: Q01DX001 (ip), vehicle: saline 108 % of control | endpoint: mean survival time, dose: 37.5 mg/kg/injection, schedule: Q04DX003 (ip), vehicle: saline 101 % of control | [1] 103 % of control | endpoint: mean survival time, dose: 75.0 mg/kg/injection, schedule: Q04DX003 (ip), vehicle: saline 104 % of control

CCCC(=O)Nc1ccn(C2OC(COC(=O)CCC)C(OC(=O)CCC)C2OC(=O)CCC)c(=O)n1 (centres undefined)
inactive: endpoint: mean survival time, dose: 100.0 mg/kg/injection, schedule: Q01DX009 (ip), vehicle: Klucel (hydroxypropylcellulose) (HPC) 112 % of control | endpoint: mean survival time, dose: 200.0 mg/kg/injection, schedule: Q01DX009 (ip), vehicle: Klucel (hydroxypropylcellulose) (HPC) 114 % of control

CNP1(=O)OC(c2ccccc2)=CCN1CCCl (centres undefined)
inactive: endpoint: median survival time, dose: 31.25 mg/kg/injection, schedule: Q01DX001 (ip), vehicle: distilled water + Tween-80 102 % of control | endpoint: median survival time, dose: 62.5 mg/kg/injection, schedule: Q01DX001 (ip), vehicle: distilled water + Tween-80 106 % of control | endpoint: median survival time, dose: 125.0 mg/kg/injection, schedule: Q01DX001 (ip), vehicle: distilled water + Tween-80 96 % of control | endpoint: median survival time, dose: 250.0 mg/kg/injection, schedule: Q01DX001 (ip), vehicle: distilled water + Tween-80 96 % of control

[Cu+2].[NH-]C1(C(=O)O)CCCC1.[NH-]C1(C(=O)O)CCCC1
inactive: endpoint: mean survival time, dose: 2.5 mg/kg/injection, schedule: Q01DX009 (ip), vehicle: saline with Tween-80 89 % of control | endpoint: mean survival time, dose: 5.0 mg/kg/injection, schedule: Q01DX009 (ip), vehicle: saline with Tween-80 100 % of control | endpoint: mean survival time, dose: 5.0 mg/kg/injection, schedule: Q04DX003 (ip), vehicle: saline 91 % of control | endpoint: mean survival time, dose: 10.0 mg/kg/injection, schedule: Q01DX009 (ip), vehicle: saline with Tween-80 94 % of control

c1ccc(C2=C(c3ccccc3)OC(c3ccccc3)=C(c3ccccc3)O2)cc1
inactive: [2] 92 % of control | endpoint: mean survival time, dose: 50.0 mg/kg/injection, schedule: Q01DX001 (ip), vehicle: saline with Tween-80 87 % of control | [3] 102 % of control | [4] 89 % of control | [5] 88 % of control

O=C(CC(O)(C(F)(F)F)C(F)(F)F)c1ccc(F)cc1
inactive: [6] 98 % of control | [7] 98 % of control | [8] 98 % of control

Fc1c(F)c(F)c(-c2nnc(-c3c(F)c(F)c(F)c(F)c3F)o2)c(F)c1F
inactive: [4] 96 % of control | [9] 96 % of control | [10] 95 % of control

NC(N)=NO
inactive: endpoint: mean survival time, dose: 25.0 mg/kg/injection, schedule: Q01DX009 (ip), vehicle: water 113 % of control | endpoint: mean survival time, dose: 50.0 mg/kg/injection, schedule: Q01DX009 (ip), vehicle: water 124 % of control | endpoint: mean survival time, dose: 200.0 mg/kg/injection, schedule: Q01DX009 (ip), vehicle: water 117 % of control | endpoint: mean survival time, dose: 300.0 mg/kg/injection, schedule: Q01DX009 (ip), vehicle: water 116 % of control | endpoint: mean survival time, dose: 500.0 mg/kg/injection, schedule: Q01DX009 (ip), vehicle: water 124 % of control

O=C(/C(=N/N(C(=O)c1ccccc1)c1ccccc1)c1ccccc1)c1ccccc1
inactive: [11] 102 % of control | [12] 88 % of control | [13] 95 % of control

CCOC(=O)CNc1nc(Cl)nc(NCC(=O)OCC)n1
inactive: [4] 87 % of control | [9] 89 % of control | [10] 91 % of control

C=CCC(Cc1ccccc1)C1=NC(C)(C)CC(C)O1 (centres undefined)
inactive: [3] 101 % of control | [4] 97 % of control | [5] 97 % of control | [9] 103 % of control | [14] 94 % of control

C#CC(OC(=O)Nc1ccccc1)C1OC2OC(C)(C)OC2C2OC(C)(C)OC12 (centres undefined)
inactive: [3] 97 % of control | [5] 93 % of control | [14] 97 % of control

CC(=O)Nc1cc(CN2CCCCC2)c(O)c2ncccc12
inactive: endpoint: mean survival time, dose: 75.0 mg/kg/injection, schedule: Q01DX001 (ip), vehicle: other 102 % of control | endpoint: mean survival time, dose: 150.0 mg/kg/injection, schedule: Q01DX001 (ip), vehicle: other 102 % of control

NC(=O)CC(N)C(=O)O (centres undefined)
inactive: endpoint: mean survival time, dose: 50.0 mg/kg/injection, schedule: Q01DX009 (ip), vehicle: other 102 % of control | endpoint: mean survival time, dose: 50.0 mg/kg/injection, schedule: Q01DX009 (ip), vehicle: saline 97 % of control | [6] 98 % of control | endpoint: mean survival time, dose: 100.0 mg/kg/injection, schedule: Q01DX009 (ip), vehicle: saline 101 % of control | [7] 98 % of control | endpoint: mean survival time, dose: 200.0 mg/kg/injection, schedule: Q01DX009 (ip), vehicle: saline 103 % of control | [8] 104 % of control | endpoint: mean survival time, dose: 400.0 mg/kg/injection, schedule: Q01DX009 (ip), vehicle: saline 103 % of control | endpoint: mean survival time, dose: 800.0 mg/kg/injection, schedule: Q01DX009 (ip), vehicle: other 104 % of control | endpoint: mean survival time, dose: 800.0 mg/kg/injection, schedule: Q01DX009 (ip), vehicle: saline 100 % of control | endpoint: mean survival time, dose: 1600.0 mg/kg/injection, schedule: Q01DX009 (ip), vehicle: other 98 % of control | endpoint: mean survival time, dose: 1600.0 mg/kg/injection, schedule: Q01DX009 (ip), vehicle: saline 101 % of control

CC1(C)CC(Cc2ccccc2)C(=O)c2ccccc21 (centres undefined)
inactive: [11] 94 % of control | [12] 92 % of control | [13] 94 % of control

NP(=O)(Oc1ccccc1)Oc1ccccc1
inactive: [2] 96 % of control | [11] 90 % of control

CN(C)S(=O)(=O)Oc1cccc([N+](=O)[O-])c1
inactive: [11] 96 % of control

O=C1CC2(C(=O)N1CN1CCOCC1)c1ccccc1-c1ccccc12
inactive: endpoint: median survival time, dose: 25.0 mg/kg/injection, schedule: Q01DX009 (ip), vehicle: Klucel (hydroxypropylcellulose) (HPC) 103 % of control | endpoint: median survival time, dose: 50.0 mg/kg/injection, schedule: Q01DX009 (ip), vehicle: Klucel (hydroxypropylcellulose) (HPC) 102 % of control | endpoint: median survival time, dose: 100.0 mg/kg/injection, schedule: Q01DX009 (ip), vehicle: Klucel (hydroxypropylcellulose) (HPC) 96 % of control | endpoint: median survival time, dose: 200.0 mg/kg/injection, schedule: Q01DX009 (ip), vehicle: Klucel (hydroxypropylcellulose) (HPC) 100 % of control | endpoint: median survival time, dose: 400.0 mg/kg/injection, schedule: Q01DX009 (ip), vehicle: Klucel (hydroxypropylcellulose) (HPC) 107 % of control

Nc1ncnc2nc(-c3ccccc3)[nH]c12
inactive: [11] 100 % of control | [12] 99 % of control | [13] 99 % of control

NC(=O)NC1CCCCCC1
inactive: [5] 102 % of control | [14] 109 % of control | endpoint: mean survival time, dose: 400.0 mg/kg/injection, schedule: Q01DX009 (ip), vehicle: saline with Tween-80 100 % of control

CCOC(=O)CN(c1c(C)cc([N+](=O)[O-])c2ccccc12)S(=O)(=O)c1ccccc1
inactive: [4] 97 % of control | [9] 94 % of control | [10] 96 % of control

Cc1ccc(S(=O)(=O)N(CCCc2c(C)nc(N)nc2Cl)c2ccccc2)cc1
inactive: endpoint: mean survival time, dose: 50.0 mg/kg/injection, schedule: Q01DX001 (ip), vehicle: Klucel (hydroxypropylcellulose) (HPC) 100 % of control | endpoint: mean survival time, dose: 100.0 mg/kg/injection, schedule: Q01DX001 (ip), vehicle: Klucel (hydroxypropylcellulose) (HPC) 104 % of control | endpoint: mean survival time, dose: 200.0 mg/kg/injection, schedule: Q01DX001 (ip), vehicle: Klucel (hydroxypropylcellulose) (HPC) 96 % of control

CCCC(CCC)(CNC(C)=O)C1CCCCC1
inactive: [1] 98 % of control | endpoint: mean survival time, dose: 150.0 mg/kg/injection, schedule: Q01DX001 (ip), vehicle: saline 88 % of control | endpoint: mean survival time, dose: 300.0 mg/kg/injection, schedule: Q01DX001 (ip), vehicle: saline 87 % of control

Cc1ccc(S(=O)(=O)N/N=C2\CC3CCC2(C)C3(C)C)cc1 (centres undefined)
inactive: [3] 96 % of control | [5] 88 % of control | [14] 100 % of control
